Test results reported in publication PMC2873402, “Discovery of High-Affinity Protein Binding Ligands – Backwards” (PLoS ONE, 2010).
Bridge positions count the residues as written; N and C are the ends. Ends that are not written are not given here. I, II: the chains in the order shown. * marks the point of attachment. StBu = CC(C)(C)S*

Experiments:
AKT2 [1] = test: Protein array (ProtoArray), binding to AKT2; set-up: species or system human
Procedure: Synbodies were screened on an Invitrogen ProtoArray™ (Life Technologies, Carlsbad, CA, USA) detected with Alexa-555 labeled streptavidin (Life Technologies), and scanned using a Perkin Elmer ProScan Array HTP. The spots were analyzed using GenePix Pro (Molecular Devices, Sunnyvale, CA, USA) and data were processed using Genespring GX (Agilent Technologies, Santa Clara, CA, USA). Synbodies were labeled with biotin using either Maleimide-PEG2-Biotin (Thermo Pierce, Rockford, IL, USA) to label the C-terminal cysteine or biotin was incorporated during synbody synthesis by replacing the C-terminal cysteine with Lys-biotin (Novabiochem, San Diego, CA, USA). Synbodies were screened on the array using the recommended protocol with the following modifications: the arrays were blocked with 5 mL blocking buffer (50mM HEPES pH 7.5, 200 mM NaCl, 0.08% Triton X-100, 25% Glycerol, 20mM reduced Glutathione, 1.0mM DTT, 1% BSA) for 90 min. A 200 nM synbody solution was incubated in probing buffer (1× PBS, 1% BSA, 0.1% Tween) for 90 minutes. Slides were dried by centrifugation at 200g for 1 minute and scanned at 100% laser power and 70% photomultiplier voltage. The gal file was obtained for each array by submitting the barcode of the array to www.invitrogen.com/protoarray.
Heat maps were constructed using median-normalized data from each ProtoArray. […]

[2] = system: GRP58 (protein disulfide-isomerase A3); test: SPR screening against immobilized GRP58; format: binding; settings: 100 nM synbody, Biacore T-100, CM5 amine coupling, 25°C immobilization, 90 s association, 240 s dissociation
Procedure: The synbody (100nM concentration) was screened by Surface Plasmon Resonance (SPR) against immobilized AKT1 and GRP58 on a Biacore T-100 SPR. The synbody appeared to have high affinity for AKT1 and low affinity for GRP58 (Figure S2). To accurately determine the binding kinetics of the synbody-AKT1 complex, several concentrations of synbody were injected over a low-density surface of biotin-labeled AKT1 captured on a Neutratvidin SPR chip using a Biacore A-100.
SPR screening of the synbody against AKT1 and GRP58 was performed on a Biacore T-100 (GE Healthcare, Piscataway, NJ, USA). The series S sensor chip CM5, amine coupling reagents and HBS-EP were obtained from GE Healthcare. A standard amine immobilization protocol was performed at 25°C using NaHCO3 (10mM in 150mM NaCl, pH 4.5) as the immobilization buffer. The CM-5 dextran chip was activated by a 10 minute injection of a freshly prepared 1∶1 solution of 400 mM 1-ethyl-3-(3-dimethylaminopropyl)-carbodimide (EDC): 100 mM N-hydroxysuccimide (NHS) in water. The NHS-carboxy groups of the dextran surface were treated with a solution of AKT1 or GRP58 (25 µg/ml) in sodium acetate (pH 5.0) for 8 mins at a flow rate of 10 µl/min. Any residual active sites were then quenched by a 5 min pulse of ethylene diamine (1M, pH 8.5). […]

AKT2 [3] = test: IP of AKT isoforms spiked into A549 lysate: AKT2; format: binding; settings: 250 ng of each isoform in 500 µg A549 lysate, Western Blot
Procedure: (§1) This apparent specificity was investigated further by performing an IP using 250 ng of each isoform of AKT spiked into 500 µg of A-549 cell lysate.
(§2) For all IP experiments, either a 1 µM or 250 nM solution of biotin-conjugated synbody was captured on 20 µL of streptavidin coated paramagnetic M-280 Dynabeads (Life Technologies) according to the manufacturers protocol. Synbody coated beads were washed five times with 1 mL of 100 mM phosphate buffered saline containing 0.05% Tween-20 (PBST) and incubated overnight at 4°C with shaking in the desired amount of target protein in A549 cell lysate. For Kd determination experiments, serial dilutions of AKT1 or ABL1 were prepared in binding buffer. After binding, beads were washed five times with 1 mL of PBST and heated at 70°C in 20 µL of 1× LDS loading buffer (Invitrogen) for 10 minutes. The samples were analyzed by SDS-PAGE gel with Western Blot detection using the appropriate antibody and imaged on a GE Healthcare Typhoon Trio.

AKT1 [4] = target: T1, AKT1 (Homo sapiens, UniProt P31749); test: IP of AKT isoforms spiked into A549 lysate: AKT1; format: binding; set-up: purchased Life Technologies; settings: 250 ng of each isoform in 500 µg A549 lysate, Western Blot
T1 sequence (P31749 whole entry, canonical isoform): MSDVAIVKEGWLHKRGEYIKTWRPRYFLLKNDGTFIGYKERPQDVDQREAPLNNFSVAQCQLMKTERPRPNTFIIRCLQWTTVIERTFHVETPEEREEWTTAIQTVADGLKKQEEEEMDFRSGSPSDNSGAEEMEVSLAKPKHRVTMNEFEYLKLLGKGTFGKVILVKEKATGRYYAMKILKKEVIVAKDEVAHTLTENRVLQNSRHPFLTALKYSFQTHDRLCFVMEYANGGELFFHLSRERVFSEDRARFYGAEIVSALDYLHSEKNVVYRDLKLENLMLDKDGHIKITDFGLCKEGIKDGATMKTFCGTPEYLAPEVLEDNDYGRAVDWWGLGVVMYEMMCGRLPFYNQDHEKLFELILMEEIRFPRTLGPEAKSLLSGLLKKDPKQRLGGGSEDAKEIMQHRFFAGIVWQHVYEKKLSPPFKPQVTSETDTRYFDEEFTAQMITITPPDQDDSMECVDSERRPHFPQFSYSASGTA
Procedure: as §1, §2

AKT1 [5] = target: T1, AKT1; test: IP of 35S-labeled AKT1, scintillation counting; format: binding; set-up: N-terminal vector leader of pEXP5-NT (6xHis + TEV site by own knowledge of the vector); made in house; host or cells: Expressway Mini Cell-Free Expression System (in vitro translation); settings: AKT1 approximately 3% of total protein
Procedure: In order to validate the Kd determined by SPR, an additional IP was performed using ^35S-labeled AKT1 produced by in vitro translation (IVT). The translation mixture contained 12 µg of AKT1 in the presence of 400 µg of total protein and a concentration series of ^35S-labeled AKT1 from 41.5 nM to 80 pM was prepared by dilution of the 35-S-labeled AKT1 IVT mixture. The synbody was then used to precipitate the ^35S-labeled AKT1 in the same manner as before. Bound AKT1 was quantified using liquid scintillation counting and plotted as a function of AKT1 concentration.
AKT1 DNA was assembled by ligation of 42-bp oligonucleotides by PCR according to a procedure developed internally (Borovkov, et al. submitted). The PCR product was cloned into pEXP5-NT topo expression vector (Life Technologies), purified using a Qaigen PCR purification kit, and quantified by Nanodrop spectrophotometer (Thermo Scientific). […]
For all IP experiments, either a 1 µM or 250 nM solution of biotin-conjugated synbody was captured on 20 µL of streptavidin coated paramagnetic M-280 Dynabeads (Life Technologies) according to the manufacturers protocol. […] The samples were analyzed by SDS-PAGE gel with Western Blot detection using the appropriate antibody and imaged on a GE Healthcare Typhoon Trio.

binding to AKT2 on protein array (AKT2 [1]): little binding
affinity for GRP58 by SPR screening [2]: low affinity
IP of AKT1 (isoform selectivity) (AKT1 [4]): selectively precipitates AKT1
Substance: I: AHKVVPQRQIRHAYNRYGSGKC(StBu)-NH2 / II: FRGWAHIFFGPHVIYRGGSG (amide I:21-II:C) [synbody]
IP of AKT2 (isoform selectivity) (AKT2 [3]): relatively little
specificity for AKT1 in IVT lysate (AKT1 [5]): specifically binds AKT1 from a complex background
